Experimental data published in patent US5721207A, “Method for treatment of pain” (Innapharma, Inc., priority 1995, dated 1998).
Read-outs that look alike come from different tables or passages of the source. Ends that are not written are not given here.

What was measured:
[1] = epidural administration; cited from earlier work

Method for rat: Intrathecal catheters were surgically implanted in the rats after application of anesthetic (Nembutal, 30 mg/kg, intraperitoneal) 5-7 days prior to the test procedure. The 5-7 day period prior to testing allowed for full recovery from the surgical procedures. […] Each catheter was anchored to the skull with cyanoacrylate adhesive, and the skull was closed with wound clips. The free end of each catheter was heat annealed; when compositions were to be injected via the intrathecal route each composition was introduced therein using a Hamilton needle inserted into the sealed catheter.
Pain sensitivity was assessed using a standard analgesiometric hot plate test (Woolfe and MacDonald (1944) J. Pharmacol. Exp. Ther. 80:300). The hot plate response was determined by placing a rat on a 55° C. copper hot plate enclosed in a plexiglass cylinder.
Because of the technical demands of these experiments, no more than 8-9 rats were tested on a given day. Sufficient animals were studied to obtain 10-11 evaluable rats per test condition. On the study day, animals were tested for baseline hot plate responses, and then received bolus injections of test analgesic or physiological saline (control). Hot plate responses were assessed again at 15 min, 30 min, 1 hr, 3 hr, 6 hr and 24 hr after intrathecal injection of test compound or vehicle control.
Ninety-six (96) rats, ranging in weight from 320 g to 420 g, were used in this study. Catheters were implanted and recovery was allowed for as described hereinabove. […] Drug or saline vehicle doses were administered using Hamilton needles inserted into the catheters, with a dose volumes of 37.5 μL/kg followed by a 10 μL saline catheter wash-out. Baseline (pre-drug) and responses at 15 min, 30 min, 1 hr, 3 hr, 6 hr and 24 hr after drug or vehicle injection were determined.

CN1CC[C@]23c4c5ccc(O)c4O[C@H]2[C@@H](O)C=C[C@H]3[C@H]1C5.O=S(=O)(O)O [Morphine, Morphine sulfate]
Hot Plate Latency (Mean ± SEM) (rat; 37.5 μg/kg (49.42 nmol/kg) intrathecal single, 0 hr (baseline)): 12.81 ± 1.23 s | Hot Plate Latency (Mean ± SEM) (rat; 37.5 μg/kg (49.42 nmol/kg) intrathecal single, 0.25 hr): 22.08 ± 2.68 s | Hot Plate Latency (Mean ± SEM) (rat; 37.5 μg/kg (49.42 nmol/kg) intrathecal single, 0.5 hr): 20.97 ± 2.56 s | Hot Plate Latency (Mean ± SEM) (rat; 37.5 μg/kg (49.42 nmol/kg) intrathecal single, 1 hr): 21.81 ± 2.46 s | Hot Plate Latency (Mean ± SEM) (rat; 37.5 μg/kg (49.42 nmol/kg) intrathecal single, 3 hr): 19.97 ± 2.05 s | Hot Plate Latency (Mean ± SEM) (rat; 37.5 μg/kg (49.42 nmol/kg) intrathecal single, 6 hr): 14.02 s | Hot Plate Latency (Mean ± SEM) (rat; 37.5 μg/kg (49.42 nmol/kg) intrathecal single, 24 hr): 11.33 ± 1.51 s | Hot Plate Latency (Mean ± SEM) (rat; 75.0 μg/kg (98.84 nmol/kg) intrathecal single, 0 hr (baseline)): 13.76 ± 1.27 s | Hot Plate Latency (Mean ± SEM) (rat; 75.0 μg/kg (98.84 nmol/kg) intrathecal single, 0.25 hr): 22.76 ± 2.43 s | Hot Plate Latency (Mean ± SEM) (rat; 75.0 μg/kg (98.84 nmol/kg) intrathecal single, 0.5 hr): 21.86 ± 2.25 s | Hot Plate Latency (Mean ± SEM) (rat; 75.0 μg/kg (98.84 nmol/kg) intrathecal single, 1 hr): 19.88 ± 2.04 s | Hot Plate Latency (Mean ± SEM) (rat; 75.0 μg/kg (98.84 nmol/kg) intrathecal single, 3 hr): 17.42 ± 1.93 s | Hot Plate Latency (Mean ± SEM) (rat; 75.0 μg/kg (98.84 nmol/kg) intrathecal single, 6 hr): 17.66 s | Hot Plate Latency (Mean ± SEM) (rat; 75.0 μg/kg (98.84 nmol/kg) intrathecal single, 24 hr): 12.60 ± 1.19 s | Hot Plate Latency (Mean ± SEM) (rat; 125.0 μg/kg (164.73 nmol/kg) intrathecal single, 0 hr (baseline)): 13.28 ± 1.35 s | Hot Plate Latency (Mean ± SEM) (rat; 125.0 μg/kg (164.73 nmol/kg) intrathecal single, 0.25 hr): 19.4 ± 1.6 s | Hot Plate Latency (Mean ± SEM) (rat; 125.0 μg/kg (164.73 nmol/kg) intrathecal single, 0.5 hr): 26.36 ± 4.20 s | Hot Plate Latency (Mean ± SEM) (rat; 125.0 μg/kg (164.73 nmol/kg) intrathecal single, 1 hr): 26.83 ± 3.04 s | Hot Plate Latency (Mean ± SEM) (rat; 125.0 μg/kg (164.73 nmol/kg) intrathecal single, 3 hr): 21.69 ± 3.62 s | Hot Plate Latency (Mean ± SEM) (rat; 125.0 μg/kg (164.73 nmol/kg) intrathecal single, 6 hr): 15.86 s | Hot Plate Latency (Mean ± SEM) (rat; 125.0 μg/kg (164.73 nmol/kg) intrathecal single, 24 hr): 13.49 s | onset of antinociception/analgesia post-injection (rat; intrathecal, all tested doses): ≤ 15 min | dose relation of hot plate latency (rat; intrathecal, all three doses (37.5, 75.0, 125.0 μg/kg)): increased hot plate latency in a dose-related fashion | peak levels of analgesia compared with elcatonin (rat; intrathecal, doses used in this study): generally lower | time of return toward baseline hot plate scores (rat; intrathecal, post-injection, particularly lower doses): ≤ 6 h

salmon calcitonin: salmon calcitonin, sequence given as SEQ ID No 4 (CSNLSTCVLGKLSQELHKLQTYPRTNTGSGTP; ends and bridges not checked; cysteine pairing not given here)
use as an analgesic in intractable pain [1]: the data did not appear to support its use as an analgesic
